From PubChem BioAssay AID2060333 (Molecular Pharmacology Branch, DTP, NCI, 2025)

System: 845751-090-R-J2-PDC tumor spheroid viability
Assay: Anticancer human tumor 845751-090-R-J2-PDC patient-derived head and neck squamous carcinoma cell line growth inhibition [IpAb]
Conditions: spheroids with HUVEC and MSC; for IC50: curve of first compound; for viability, T/C: stronger effect = lower value
Description: Combinatorial screen of targeted agents with ipatasertib and abemaciclib in multi-cell type tumor spheroids
A high-throughput screen of multi-cell type tumor spheroids was designed to identify active combinations of targeted small molecules and ipatasertib or abemaciclib. Complex spheroids include a stromal component modeled by human endothelial cells (HUVEC) and fibroblasts modeled by human mesenchymal stem cells (MSCs). The concentration ranges selected for each drug and investigational agent were based upon clinically achievable concentrations if the clinical Cmax of the agent was known.
Compounds. The drugs and investigational agents: ipatasertib (NSC767898), abemaciclib(NSC768073), selumetinib (NSC741078), trametinib (758246), adavosertib (NSC754352), everolimus (NSC733504), sapanisertib (NSC764658), vemurafenib (NSC761431), venetoclax (NSC766270), copanlisib (NSC809693), apelisib (NSC765974), palbociblib (NSC758247), vemurafenib (NSC761431), dabrafenib (NSC764134), ravoxertinib (NSC781343), BMS-387032 (NSC767048), sotorasib (NSC818433), talazoparib (NSC767125) and afursertib (NSC778305), were obtained from the National Cancer Institute (NCI) Developmental Therapeutics Program Chemical Repository. The FDA-approved anticancer drug set is available from the NCI Developmental Therapeutics Program. […] The stock solutions were prepared in dimethyl sulfoxide (DMSO, Sigma-Aldrich, St. Louis, MO, cat. D2650) at 800-fold the tested concentration and stored at -70 degrees C prior to their use. All drugs and investigational agents were tested over a range starting from a high concentration at or near the clinical Cmax and decreasing in half-log increments. If the clinical Cmax for an agent had not been determined, the highest concentration tested was 10 microM.
NCI60 Cell Culture. NCI60 cell lines were obtained from the NCI Developmental Therapeutics Program Tumor Repository. For each lot of cells, the Repository performed Applied Biosystems AmpFLSTR Identifiler testing with PCR amplification to confirm consistency with the published Identifier STR profile for each cell line. Cells were kept in continuous culture for no more than 20 passages. The optimal seeding densities for each of the cell lines at each time point assessed were determined prior to performing the concentration response studies. Briefly, the NCI60 human tumor lines were grown as monolayers in RPMI 1640 medium supplemented with 10% FBS and 2 mmol/L L-glutamine.
An additional 9 lines were from the NCI60 cell line panel including MDA-MB-231 breast carcinoma, MDA-MB-468 breast carcinoma, MCF7 breast carcinoma, Hs578T breast carcinoma, MALME-3M melanoma, SK-MEL-2 melanoma, SK-OV-3 ovarian carcinoma, DU-145 prostate carcinoma, PC-3 prostate carcinoma, all cell lines along with major genetic alterations are listed on Table 2. Pooled donor human umbilical vein endothelial cells (HUVEC, Lonza, cat. CC-2519) and human mesenchymal stem cells (hMSC, Lonza, cat. PT-2501) were purchased from Lonza (Walkersville, MD).
PDMR cell lines were grown in complete medium (DC medium): Dulbecco's modified Eagle's medium (DMEM)/F12 supplemented with 5% fetal bovine serum (FBS), 2 mM L-glutamine, 100 U/mL penicillin and 100 µg/ml streptomycin, 0.4 µg/ml hydrocortisone, 10 ng/ml epidermal growth factor (EGF) recombinant human protein, 24 µg/mL adenine, and 0.1 mg/mL primocin. During culture from frozen stock vials, PDMR cells were cultured in the same medium containing 10 µM Y-27632 (see Table 3). The PDCs were cultured in complete DMEM/F12 media without 10 microM Y-27632 dihydrochloride for at least two passages prior to the screen. The pooled donor HUVEC and hMSC were cultured in endothelial cell growth medium 2 (PromoCell, Heidelberg, Germany, cat. C-22011) and mesenchymal stem cell growth medium 2 (PromoCell, cat. C-28009), respectively. For all experiments, HUVEC and hMSC were used at passages </=5.
[…]

[1] = second compound 0.1 µM, first compound 0.0316 µM
[2] = second compound 0.1 µM, first compound 0.1 µM
[3] = second compound 0.316 µM, first compound 0.0316 µM
[4] = second compound 0.316 µM, first compound 0.1 µM
[5] = second compound 1 µM, first compound 0.0316 µM
[6] = second compound 1 µM, first compound 0.1 µM
[7] = second compound 3.16 µM, first compound 0.0316 µM
[8] = second compound 3.16 µM, first compound 0.1 µM
[9] = second compound 10 µM, first compound 0.0316 µM
[10] = second compound 10 µM, first compound 0.1 µM
[11] = second compound 0.1 µM, first compound 0.316 µM
[12] = second compound 0.1 µM, first compound 1 µM
[13] = second compound 0.1 µM, first compound 3.16 µM
[14] = second compound 0.1 µM, first compound 10 µM
[15] = second compound 0.316 µM, first compound 0.316 µM
[16] = second compound 0.316 µM, first compound 1 µM
[17] = second compound 0.316 µM, first compound 3.16 µM
[18] = second compound 0.316 µM, first compound 10 µM
[19] = second compound 1 µM, first compound 0.316 µM
[20] = second compound 1 µM, first compound 1 µM
[21] = second compound 1 µM, first compound 3.16 µM
[22] = second compound 1 µM, first compound 10 µM
[23] = second compound 3.16 µM, first compound 0.316 µM
[24] = second compound 3.16 µM, first compound 1 µM
[25] = second compound 3.16 µM, first compound 3.16 µM
[26] = second compound 3.16 µM, first compound 10 µM
[27] = second compound 10 µM, first compound 0.316 µM
[28] = second compound 10 µM, first compound 1 µM
[29] = second compound 10 µM, first compound 3.16 µM
[30] = second compound 10 µM, first compound 10 µM
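Further: spheroids exposed to compounds for 7 days before readout.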
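Wherever viability, T/C is given: CTG3D luminescence normalised so that 100% = DMSO vehicle control.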

Structure (SMILES)	IC50 (second compound 0.1 µM)	IC50 (second compound 0.316 µM)	IC50 (second compound 1 µM)	IC50 (second compound 3.16 µM)	IC50 (second compound 10 µM)	viability, T/C [1]	viability, T/C [2]	viability, T/C [3]	viability, T/C [4]	viability, T/C [5]	viability, T/C [6]	viability, T/C [7]	viability, T/C [8]	viability, T/C [9]	viability, T/C [10]	viability, T/C [11]	viability, T/C [12]	viability, T/C [13]	viability, T/C [14]	viability, T/C [15]	also measured
CC(C)n1nc(-c2ccc3oc(N)nc3c2)c2c(N)ncnc21 + CC(C)NCC(C(=O)N1CCN(c2ncnc3c2C(C)CC3O)CC1)c1ccc(Cl)cc1	1.3 nM	< 0.316 nM	< 0.316 nM	< 0.316 nM	< 0.316 nM	21.2%	21.8%	11.2%	9.02%	8.17%	9.76%	4%	3.17%	2.07%	1.99%	–	–	–	–	–	viability, T/C (second compound 0.1 µM, first compound 0.000316 µM): 55.2%; viability, T/C (second compound 0.1 µM, first compound 0.001 µM): 48.8%; viability, T/C (second compound 0.1 µM, first compound 0.00316 µM): 45.1%; viability, T/C (second compound 0.1 µM, first compound 0.01 µM): 28.1%; viability, T/C (second compound 0.316 µM, first compound 0.000316 µM): 36%; viability, T/C (second compound 0.316 µM, first compound 0.001 µM): 27.3%; viability, T/C (second compound 0.316 µM, first compound 0.00316 µM): 23.3%; viability, T/C (second compound 0.316 µM, first compound 0.01 µM): 13.5%; viability, T/C (second compound 1 µM, first compound 0.000316 µM): 22.4%; viability, T/C (second compound 1 µM, first compound 0.001 µM): 22.9%; viability, T/C (second compound 1 µM, first compound 0.00316 µM): 12.2%; viability, T/C (second compound 1 µM, first compound 0.01 µM): 8.4%; viability, T/C (second compound 3.16 µM, first compound 0.000316 µM): 24.3%; viability, T/C (second compound 3.16 µM, first compound 0.001 µM): 13.1%; viability, T/C (second compound 3.16 µM, first compound 0.00316 µM): 8.4%; viability, T/C (second compound 3.16 µM, first compound 0.01 µM): 5.71%; viability, T/C (second compound 10 µM, first compound 0.000316 µM): 8.63%; viability, T/C (second compound 10 µM, first compound 0.001 µM): 7.55%; viability, T/C (second compound 10 µM, first compound 0.00316 µM): 4.17%; viability, T/C (second compound 10 µM, first compound 0.01 µM): 4.42%
CC1(C)CCC(CN2CCN(c3ccc(C(=O)NS(=O)(=O)c4ccc(NCC5CCOCC5)c([N+](=O)[O-])c4)c(Oc4cnc5[nH]ccc5c4)c3)CC2)=C(c2ccc(Cl)cc2)C1 + CC(C)NCC(C(=O)N1CCN(c2ncnc3c2C(C)CC3O)CC1)c1ccc(Cl)cc1	5770 nM	< 31.6 nM	< 31.6 nM	< 31.6 nM	< 31.6 nM	65.2%	83%	30.5%	38.3%	28.6%	27.6%	26.7%	27.3%	13.1%	14.6%	81.9%	67%	111%	20.9%	53.5%	viability, T/C [16]: 44%; viability, T/C [17]: 47%; viability, T/C [18]: 14.4%; viability, T/C [19]: 54.8%; viability, T/C [20]: 33.1%; viability, T/C [21]: 33.6%; viability, T/C [22]: 7.48%; viability, T/C [23]: 31.5%; viability, T/C [24]: 29.5%; viability, T/C [25]: 42.4%; viability, T/C [26]: 5.79%; viability, T/C [27]: 38.2%; viability, T/C [28]: 15.5%; viability, T/C [29]: 22%; viability, T/C [30]: 3.52%
CCCS(=O)(=O)Nc1ccc(F)c(C(=O)c2c[nH]c3ncc(-c4ccc(Cl)cc4)cc23)c1F + CC(C)NCC(C(=O)N1CCN(c2ncnc3c2C(C)CC3O)CC1)c1ccc(Cl)cc1	> 10000 nM	126 nM	< 31.6 nM	< 31.6 nM	< 31.6 nM	74.3%	75.2%	47.2%	52.1%	46.5%	45.9%	41.9%	42.6%	18.7%	17.2%	63%	61.6%	49%	53.4%	46.1%	viability, T/C [16]: 55.4%; viability, T/C [17]: 56.7%; viability, T/C [18]: 38.8%; viability, T/C [19]: 37.6%; viability, T/C [20]: 31.2%; viability, T/C [21]: 42.5%; viability, T/C [22]: 24.8%; viability, T/C [23]: 29%; viability, T/C [24]: 26.5%; viability, T/C [25]: 32%; viability, T/C [26]: 16.3%; viability, T/C [27]: 19.6%; viability, T/C [28]: 14.7%; viability, T/C [29]: 15.7%; viability, T/C [30]: 7.71%
